Measured values reported in patent US20230391725A1, “MODULATORS OF THE INTEGRATED STRESS RESPONSE PATHWAY” (Evotec International GmbH, priority 2020, published 2023).

Tested on: ATF4
Assay: HEK-ATF4 High Content Imaging assay (prevention of Tunicamycin induced ISR)
Format: cell-based
Details: Homo sapiens, Wild-type HEK293 cells, 6 h incubation, ATF4 signal ratio between nucleus and cytoplasm
Description: Example compounds were tested in the HEK-ATF4 High Content Imaging assay to assess their pharmacological potency to prevent Tunicamycin induced ISR. Wild-type HEK293 cells were plated in 384-well imaging assay plates at a density of 12,000 cells per well in growth medium (containing DMEM/F12, 10% FBS, 2 mM L-Glutamine, 100 U/mL Penicillin—100 μg/mL Streptomycin) and incubated at 37° C., 5% CO2. 24 h later, the medium was changed to 50 μL assay medium per well (DMEM/F12, 0.3% FBS, 2mM L-Glutamine, 100 U/mL Penicillin—100 μg/mL Streptomycin). Example compounds were serially diluted in DMSO, spotted into intermediate plates and prediluted with assay medium containing 3.3 […] Tunicamycin to give an 11-fold excess of final assay concentration. In addition to the example compound testing area, the plates also contained multiples of control wells for assay normalization purposes, wells containing Tunicamycin but no example compounds (High control), as well as wells containing neither example compound nor Tunicamycin (Low control). The assay was started by transferring 5 μL from the intermediate plate into the assay plates, followed by incubation for 6 h at 37° C., 5% CO2. Subsequently, cells were fixed (4% PFA in PBS, 20 min at r.t.) and submitted to indirect ATF4 immunofluorescence staining (primary antibody rabbit anti ATF4, clone D4B8, Cell Signaling Technologies; secondary antibody Alexa Fluor 488 goat anti-rabbit IgG (H+L), Thermofisher Scientific). Nuclei were stained using Hoechst dye (Thermofisher Scientific), and plates were imaged on an Opera Phenix High Content imaging platform equipped with 405 nm and 488 nm excitation. Finally, images were analyzed using script based algorithms. The main readout HEK-ATF4 monitored the ATF4 signal ratio between nucleus and cytoplasm. Tunicamycin induced an increase in the overall ATF4 ratio signal, which was prevented by ISR modulating example compounds. In addition, HEK-CellCount readout was derived from counting the number of stained nuclei corresponding to healthy cells. This readout served as an internal toxicity control.

Compound	IC50 [nM]
COc1cc(Cl)ccc1NC(=O)[C@H]1CC[C@H](NC(=O)COc2ccc(Cl)c(F)c2)CN1 [Example 16, (2R,5S)-N-(4-chloro-2-methoxyphenyl)-5-[2-(4-chloro-3-fluorophenoxy)acetamido]piperidine-2-carboxamide]	2000 to 15000
O=C(COc1ccc(Cl)c(F)c1)N[C@H]1CC[C@H](C(=O)NCc2cc(C(F)(F)F)co2)NC1 [Example 18, (2R,5S)-5-[2-(4-chloro-3-fluorophenoxy)acetamido]-N-{[4-(trifluoromethyl)furan-2-yl]methyl}piperidine-2-carboxamide]	1 to 500
O=C(COc1ccc(Cl)c(F)c1)N[C@H]1CC[C@H](C(=O)Nc2cc(C(F)(F)F)ccc2F)NC1 [Example 35, (2R,5S)-5-[2-(4-chloro-3-fluorophenoxy)acetamido]-N-[2-fluoro-5-(trifluoromethyl)phenyl]piperidine-2-carboxamide]	500 to 2000
O=C(COc1ccc(Cl)c(F)c1)N[C@@H]1CC[C@@H](C(=O)Nc2cccc(C(F)(F)F)c2)NC1 [Example 31, (2S,5R)-5-[2-(4-chloro-3-fluorophenoxy)acetamido]-N-[3-(trifluoromethyl)phenyl]piperidine-2-carboxamide]	1 to 500
O=C(COc1ccc(Cl)c(F)c1)N[C@H]1CC[C@H](C(=O)Nc2ccccc2)NC1 [Example 10, (2R,5S)-5-[2-(4-chloro-3-fluorophenoxy)acetamido]-N-phenylpiperidine-2-carboxamide]	2000 to 15000
O=C(COc1ccc(Cl)c(F)c1)N[C@H]1CC[C@H](C(=O)N2CC(OCCOC(F)(F)F)C2)NC1 [Example 5, 2-(4-chloro-3-fluorophenoxy)-N-[(3S,6R)-6-{3-[2-(trifluoromethoxy)ethoxy]azetidine-1-carbonyl}piperidin-3-yl]acetamide]	2000 to 15000
O=C(COc1ccc(Cl)c(F)c1)N[C@H]1CC[C@H](C(=O)N[C@H]2C[C@@H](OC(F)(F)F)C2)NC1 [Example 27, (2R,5S)-5-[2-(4-chloro-3-fluorophenoxy)acetamido]-N-[(1s,3s)-3-(trifluoromethoxy)cyclobutyl]piperidine-2-carboxamide]	500 to 2000
O=C(COc1ccc(Cl)c(F)c1)N[C@H]1CC[C@H](C(=O)NCc2ccc(Cl)cn2)NC1 [Example 14, (2R,5S)-5-[2-(4-chloro-3-fluorophenoxy)acetamido]-N-[(5-chloropyridin-2-yl)methyl]piperidine-2-carboxamide]	2000 to 15000
O=C(COc1ccc(Cl)c(F)c1)N[C@H]1CC[C@H](C(=O)NC[C@H]2CC[C@@H](C(F)(F)F)CC2)NC1 [Example 19, (2R,5S)-5-[2-(4-chloro-3-fluorophenoxy)acetamido]-N-{[(1s,4s)-4-(trifluoromethyl)cyclohexyl]methyl}piperidine-2-carboxamide]	2000 to 15000
Cc1c(NC(=O)[C@H]2CC[C@H](NC(=O)COc3ccc(Cl)c(F)c3)CN2)cnn1CC(F)(F)F [Example 26, (2R,5S)-5-[2-(4-chloro-3-fluorophenoxy)acetamido]-N-[5-methyl-1-(2,2,2-trifluoroethyl)-1H-pyrazol-4-yl]piperidine-2-carboxamide]	2000 to 15000
O=C(COc1ccc(Cl)c(F)c1)N[C@H]1CC[C@H](C(=O)Nc2ccc(Cl)cc2)NC1 [Example 8, (2R,5S)-5-[2-(4-chloro-3-fluorophenoxy)acetamido]-N-(4-chlorophenyl)piperidine-2-carboxamide]	1 to 500
O=C(COc1ccc(Cl)c(F)c1)N[C@H]1CC[C@H](C(=O)NCc2ccc(C(F)(F)F)cc2)NC1 [Example 4, (2R,5S)-5-[2-(4-chloro-3-fluorophenoxy)acetamido]-N-{[4-(trifluoromethyl)phenyl]methyl}piperidine-2-carboxamide]	1 to 500
O=C(COc1ccc(Cl)c(F)c1)N[C@H]1CC[C@H](C(=O)NCCCCC(F)(F)F)NC1 [Example 29, (2R,5S)-5-[2-(4-chloro-3-fluorophenoxy)acetamido]-N-(5,5,5-trifluoropentyl)piperidine-2-carboxamide]	2000 to 15000
O=C(COc1ccc(Cl)c(F)c1)N[C@H]1CC[C@H](C(=O)Nc2cccc(C(F)F)c2)NC1 [Example 24, (2R,5S)-5-[2-(4-chloro-3-fluorophenoxy)acetamido]-N-[3-(difluoromethyl)phenyl]piperidine-2-carboxamide]	1 to 500
Cc1cc(C)cc(NC(=O)[C@H]2CC[C@H](NC(=O)COc3ccc(Cl)c(F)c3)CN2)c1 [Example 28, (2R,5S)-5-[2-(4-chloro-3-fluorophenoxy)acetamido]-N-(3,5-dimethylphenyl)piperidine-2-carboxamide]	2000 to 15000
O=C(COc1ccc(Cl)c(F)c1)N[C@H]1CC[C@H](C(=O)Nc2ccn(C(F)(F)F)n2)NC1 [Example 34, (2R,5S)-5-[2-(4-chloro-3-fluorophenoxy)acetamido]-N-[1-(trifluoromethyl)-1H-pyrazol-3-yl]piperidine-2-carboxamide]	500 to 2000

Other lines, results leading:

IC50 [nM]	Compound
1 to 500	O=C(COc1ccc(Cl)c(F)c1)N[C@H]1CC[C@H](C(=O)Nc2ccnc(C(F)(F)F)n2)NC1 [Example 49, (2R,5S)-5-[2-(4-chloro-3-fluorophenoxy)acetamido]-N-[2-(trifluoromethyl)pyrimidin-4-yl]piperidine-2-carboxamide]
500 to 2000	O=C(COc1ccc(Cl)c(F)c1)N[C@H]1CC[C@H](C(=O)NC2CCC(OC(F)(F)F)C2)NC1 (stereo partly drawn) [Example 47, (2R,5S)-5-[2-(4-chloro-3-fluorophenoxy)acetamido]-N-[3-(trifluoromethoxy)cyclopentyl]piperidine-2-carboxamide]
1 to 500	O=C(COc1ccc(Cl)c(F)c1)N[C@H]1CC[C@H](C(=O)N2Cc3ccc(OC(F)(F)F)cc3C2)NC1 [Example 41, 2-(4-chloro-3-fluorophenoxy)-N-[(3S,6R)-6-[5-(trifluoromethoxy)-2,3-dihydro-1H-isoindole-2-carbonyl]piperidin-3-yl]acetamide]
1 to 500	O=C(COc1ccc(Cl)c(F)c1)N[C@H]1CC[C@H](C(=O)Nc2cncc(C(F)(F)F)n2)NC1 [Example 51, (2R,5S)-5-[2-(4-chloro-3-fluorophenoxy)acetamido]-N-[6-(trifluoromethyl)pyrazin-2-yl]piperidine-2-carboxamide]
1 to 500	O=C(COc1ccc(Cl)c(F)c1)N[C@H]1CC[C@H](C(=O)N[C@H]2CC[C@H](OC(F)(F)F)C2)NC1 (single isomer, unassigned) [Example 53]
2000 to 15000	O=C(COc1ccc(Cl)c(F)c1)N[C@H]1CC[C@H](C(=O)N2CCc3c2cccc3C(F)(F)F)NC1 [Example 45, 2-(4-chloro-3-fluorophenoxy)-N-[(3S,6R)-6-[4-(trifluoromethyl)-2,3-dihydro-1H-indole-1-carbonyl]piperidin-3-yl]acetamide]
1 to 500	CN1C[C@@H](NC(=O)COc2ccc(Cl)c(F)c2)CC[C@@H]1C(=O)Nc1cncc(C(F)(F)F)n1 [Example 52, (2R,5S)-5-[2-(4-chloro-3-fluorophenoxy)acetamido]-1-methyl-N-[6-(trifluoromethyl)pyrazin-2-yl]piperidine-2-carboxamide]
1 to 500	O=C(COc1ccc(Cl)c(F)c1)N[C@H]1CC[C@H](C(=O)Nc2cccc(C(F)(F)F)c2F)NC1 [Example 36, (2R,5S)-5-[2-(4-chloro-3-fluorophenoxy)acetamido]-N-[2-fluoro-3-(trifluoromethyl)phenyl]piperidine-2-carboxamide]
2000 to 15000	O=C(COc1ccc(Cl)c(F)c1)N[C@H]1CC[C@H](C(=O)Nc2ccn(C3CC3(F)F)n2)NC1 (stereo partly drawn) [Example 46, (2R,5S)-5-[2-(4-chloro-3-fluorophenoxy)acetamido]-N-[1-(2,2-difluorocyclopropyl)-1H-pyrazol-3-yl]piperidine-2-carboxamide]
1 to 500	O=C(COc1ccc(Cl)c(F)c1)N[C@H]1CC[C@H](C(=O)Nc2cccc(OC(F)(F)F)n2)NC1 [Example 37, (2R,5S)-5-[2-(4-chloro-3-fluorophenoxy)acetamido]-N-[6-(trifluoromethoxy)pyridin-2-yl]piperidine-2-carboxamide]
500 to 2000	O=C(COc1ccc(Cl)c(F)c1)N[C@H]1CC[C@H](C(=O)NCc2cc(C(F)(F)F)on2)NC1 [Example 43, (2R,5S)-5-[2-(4-chloro-3-fluorophenoxy)acetamido]-N-{[5-(trifluoromethyl)-1,2-oxazol-3-yl]methyl}piperidine-2-carboxamide]
500 to 2000	O=C(COc1ccc(Cl)c(F)c1)N[C@H]1CC[C@H](C(=O)Nc2cc(C(F)(F)F)ccn2)NC1 [Example 38, (2R,5S)-5-[2-(4-chloro-3-fluorophenoxy)acetamido]-N-[4-(trifluoromethyl)pyridin-2-yl]piperidine-2-carboxamide]
2000 to 15000	O=C(COc1ccc(Cl)c(F)c1)N[C@H]1CC[C@H](C(=O)NCc2cc(C(F)(F)F)ccn2)NC1 [Example 44, (2R,5S)-5-[2-(4-chloro-3-fluorophenoxy)acetamido]-N-{[4-(trifluoromethyl)pyridin-2-yl]methyl}piperidine-2-carboxamide]
